Our source for the IC50 values is ChEMBL document CHEMBL5576106, “Highly Functionalized Spirobisnaphthalenes from Roussoella sp. KT4147” (J Nat Prod, 2024).

This experiment deals with COLO 201. The experiment in a line: Cytotoxicity against human COLO201 cells assessed as inhibition of cell growth incubated for 24 hrs by WST-1 assay. The experiment is classed as functional, cell-based. The settings on record: COLO 201, 24 h. For orientation: Tetrazolium assays rely on reduction of a dye to a coloured formazan, in cell work by metabolically active cells.

Consider `O=C1C=CC(=O)C2=C1[C@@H](O)[C@H]1O[C@H]1C21Oc2cccc3cccc(c23)O1`, for which the 50% inhibitory concentration (IC50) – broadly, the concentration needed to halve the response being measured – was 9.4 µM.

Regarding `Oc1ccc(O)c2c1[C@@H](O)C[C@@H](O)C21Oc2cccc3cccc(c23)O1`, the IC50 was 9.8 µM.

In the case of `CC[C@@]1(O)C(=O)OCc2c1cc1n(c2=O)Cc2cc3ccccc3nc2-1` [CAMPTOTHECIN], the IC50 amounted to 27 µM.

Consider `COc1cc(=O)oc2c1[C@H](CO)[C@@H]1[C@H](C2)C(=O)c2cccc3c2[C@@]12Oc1ccc(O)c4c1[C@](O3)(O2)[C@@H]1O[C@@H]1C4=O`, for which the IC50 worked out at 5.4 µM.

Consider `O=C1C[C@@H](N[C@@H]2CC(=O)c3cccc4c3[C@@]23Oc2ccc(O)c5c2[C@](O4)(O3)[C@@H]2O[C@@H]2C5=O)[C@]23Oc4ccc(O)c5c4[C@](Oc4cccc1c42)(O3)[C@@H]1O[C@@H]1C5=O`, for which the 50% inhibitory concentration (IC50) was 5.7 µM.
